d = 2'-deoxy (DNA); r = 2'-OH (RNA)
Test system: LHPP gene
Assay: High-throughput screening of saRNAs targeting LHPP promoter: LHPP mRNA by one-step RT-qPCR in Huh7 cells
Format: cell-based, human
Conditions: 10 nM saRNA, 72 hours, relative to control (Mock)
Outline: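 Huh7 cells were transfected with 10 nM saRNA using RNAiMax and lysed 72 h later. LHPP mRNA was quantified by one-step RT-qPCR in triplicate wells. Expression was normalised to HPRT1 and TBP and given as fold change versus mock-transfected cells.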

Substance	Fold of changes in relative LHPP mRNA expression level [fold]	Fold of changes in relative LHPP mRNA expression level (log2)
RAG7-780: saRNA duplex; sense AAUGUAGCAUCGAGUGGUATT (SEQ ID NO: 142), antisense UACCACUCGAUGCUACAUUTT (SEQ ID NO: 306) (sugars from the 5' end r19 d2, backbone not given here)	1.14	0.19
RAG7-181: saRNA duplex; sense CUCAAUUUGCCUUUGACCUTT (SEQ ID NO: 97), antisense AGGUCAAAGGCAAAUUGAGTT (SEQ ID NO: 261) (sugars from the 5' end r19 d2, backbone not given here)	1.22	0.29
RAG7-183: saRNA duplex; sense GUCUCAAUUUGCCUUUGACTT (SEQ ID NO: 27), antisense GUCAAAGGCAAAUUGAGACTT (SEQ ID NO: 191) (sugars from the 5' end r19 d2, backbone not given here)	1.51	0.59
RAG7-162: saRNA duplex; sense UUCUUAGGGACUUGUUUUCTT (SEQ ID NO: 19), antisense GAAAACAAGUCCCUAAGAATT (SEQ ID NO: 183) (sugars from the 5' end r19 d2, backbone not given here)	1.56	0.64
RAG7-738: saRNA duplex; sense CCUGGGUUUAACGCAUUGUTT (SEQ ID NO: 159), antisense ACAAUGCGUUAAACCCAGGTT (SEQ ID NO: 323) (sugars from the 5' end r19 d2, backbone not given here)	1.11	0.15
RAG7-821: saRNA duplex; sense ACUCCUCCCUUUUAAUAUCTT (SEQ ID NO: 89), antisense GAUAUUAAAAGGGAGGAGUTT (SEQ ID NO: 253) (sugars from the 5' end r19 d2, backbone not given here)	1.25	0.32
RAG7-887: saRNA duplex; sense GACCAGAAGUAAAGUGUUCTT (SEQ ID NO: 51), antisense GAACACUUUACUUCUGGUCTT (SEQ ID NO: 215) (sugars from the 5' end r19 d2, backbone not given here)	1.37	0.46
RAG7-709: saRNA duplex; sense UUUUCUUCUCAGCCCAGGUTT (SEQ ID NO: 126), antisense ACCUGGGCUGAGAAGAAAATT (SEQ ID NO: 290) (sugars from the 5' end r19 d2, backbone not given here)	1.17	0.22
RAG7-693: saRNA duplex; sense GGUCCUAUGCAUCCUCAUCTT (SEQ ID NO: 98), antisense GAUGAGGAUGCAUAGGACCTT (SEQ ID NO: 262) (sugars from the 5' end r19 d2, backbone not given here)	1.22	0.29
RAG7-143: saRNA duplex; sense UGCUUUUCCUGCUCUUUGUTT (SEQ ID NO: 102), antisense ACAAAGAGCAGGAAAAGCATT (SEQ ID NO: 266) (sugars from the 5' end r19 d2, backbone not given here)	1.21	0.28
RAG7-165: saRNA duplex; sense CCUUUCUUAGGGACUUGUUTT (SEQ ID NO: 152), antisense AACAAGUCCCUAAGAAAGGTT (SEQ ID NO: 316) (sugars from the 5' end r19 d2, backbone not given here)	1.11	0.16
RAG7-191: saRNA duplex; sense GCCUUCUUGUCUCAAUUUGTT (SEQ ID NO: 88), antisense CAAAUUGAGACAAGAAGGCTT (SEQ ID NO: 252) (sugars from the 5' end r19 d2, backbone not given here)	1.25	0.32
RAG7-678: saRNA duplex; sense CAUCUAUGCAGGGCUGUUATT (SEQ ID NO: 63), antisense UAACAGCCCUGCAUAGAUGTT (SEQ ID NO: 227) (sugars from the 5' end r19 d2, backbone not given here)	1.33	0.41
RAG7-908: saRNA duplex; sense UGAAAGCUCAAAGCUAUGUTT (SEQ ID NO: 31), antisense ACAUAGCUUUGAGCUUUCATT (SEQ ID NO: 195) (sugars from the 5' end r19 d2, backbone not given here)	1.49	0.57
RAG7-830: saRNA duplex; sense AUUGAGGAAACUCCUCCCUTT (SEQ ID NO: 36), antisense AGGGAGGAGUUUCCUCAAUTT (SEQ ID NO: 200) (sugars from the 5' end r19 d2, backbone not given here)	1.45	0.54
RAG7-188: saRNA duplex; sense UUCUUGUCUCAAUUUGCCUTT (SEQ ID NO: 21), antisense AGGCAAAUUGAGACAAGAATT (SEQ ID NO: 185) (sugars from the 5' end r19 d2, backbone not given here)	1.55	0.64
RAG7-123: saRNA duplex; sense CGCUGAUCUCCUGGGAAGATT (SEQ ID NO: 68), antisense UCUUCCCAGGAGAUCAGCGTT (SEQ ID NO: 232) (sugars from the 5' end r19 d2, backbone not given here)	1.30	0.38
RAG7-104: saRNA duplex; sense AAGCUUCCGAAAAGGACACTT (SEQ ID NO: 43), antisense GUGUCCUUUUCGGAAGCUUTT (SEQ ID NO: 207) (sugars from the 5' end r19 d2, backbone not given here)	1.41	0.50
RAG7-190: saRNA duplex; sense CCUUCUUGUCUCAAUUUGCTT (SEQ ID NO: 130), antisense GCAAAUUGAGACAAGAAGGTT (SEQ ID NO: 294) (sugars from the 5' end r19 d2, backbone not given here)	1.16	0.22
RAG7-686: saRNA duplex; sense UGCAUCCUCAUCUAUGCAGTT (SEQ ID NO: 86), antisense CUGCAUAGAUGAGGAUGCATT (SEQ ID NO: 250) (sugars from the 5' end r19 d2, backbone not given here)	1.25	0.32
RAG7-170: saRNA duplex; sense UUUGACCUUUCUUAGGGACTT (SEQ ID NO: 132), antisense GUCCCUAAGAAAGGUCAAATT (SEQ ID NO: 296) (sugars from the 5' end r19 d2, backbone not given here)	1.16	0.21
RAG7-103: saRNA duplex; sense AGCUUCCGAAAAGGACACCTT (SEQ ID NO: 72), antisense GGUGUCCUUUUCGGAAGCUTT (SEQ ID NO: 236) (sugars from the 5' end r19 d2, backbone not given here)	1.29	0.37
RAG7-98: saRNA duplex; sense CCGAAAAGGACACCGUUUCTT (SEQ ID NO: 145), antisense GAAACGGUGUCCUUUUCGGTT (SEQ ID NO: 309) (sugars from the 5' end r19 d2, backbone not given here)	1.14	0.19
RAG7-829: saRNA duplex; sense UUGAGGAAACUCCUCCCUUTT (SEQ ID NO: 29), antisense AAGGGAGGAGUUUCCUCAATT (SEQ ID NO: 193) (sugars from the 5' end r19 d2, backbone not given here)	1.50	0.59
RAG7-169: saRNA duplex; sense UUGACCUUUCUUAGGGACUTT (SEQ ID NO: 61), antisense AGUCCCUAAGAAAGGUCAATT (SEQ ID NO: 225) (sugars from the 5' end r19 d2, backbone not given here)	1.34	0.42
RAG7-905: saRNA duplex; sense AAGCUCAAAGCUAUGUUGGTT (SEQ ID NO: 92), antisense CCAACAUAGCUUUGAGCUUTT (SEQ ID NO: 256) (sugars from the 5' end r19 d2, backbone not given here)	1.24	0.31
RAG7-107: saRNA duplex; sense AGAAAGCUUCCGAAAAGGATT (SEQ ID NO: 156), antisense UCCUUUUCGGAAGCUUUCUTT (SEQ ID NO: 320) (sugars from the 5' end r19 d2, backbone not given here)	1.11	0.15
